≈ marks a conversion by molar mass, not a printed value. Read-outs that look alike come from different tables or passages of the source.
Legend:
[1] = test system: Candida albicans; test: Minimum fungicidal concentration by broth dilution method; type: cell-based
Description: The preparation of the nutrient media, the antifungal agents and the fungi to be tested in the present invention are similar to those reported in S. Shadomy and A. Espinel-Ingroff, "Susceptibility Testing Of Antifungal Agents", Ch. 63, pp. 569-574 in E. H. Lennett, E. H. Spaulding, and J. P. Truant, Eds., Manual Of Clinical Microbiology, 2nd Ed., American Society for Microbiology, Washington, D.C. (1974). This publication describes the susceptibility testing of antifungal agents, namely, amphotericin B, nystatin and 5-fluoro-cytosine (5-FC), by the "broth dilution method" and the "semisolid agar dilution method". At pages 570-571, it is stated:
The minimal fungicidal concentrations of amphotericin B for the first 6 isolates of Candida albicans listed in Table 1 were determined by incubating the disks and organisms for 48 hours. At concentrations below the minimum fungicidal concentration, overgrowth occurred by 48 hours.

[2] = cited from earlier work
[3] = test system: Geotrichum candidum; test: MIC by impregnated disk method, Geotrichum candidum; type: cell-based; settings: read-out: Minimum Inhibitory Concentration, Disk
Protocol: (§1) Stock solutions of the antifungal agents to be tested are preferably prepared by diluting the antifungal agents in the proper nutrient medium. It is presently preferred to prepare dilutions in 10 ml of the proper medium to give the following final concentrations when applied to the disks (all quantities in micrograms per milliliter): 0.05, 0.08, 0.09, 0.1; 0.1 increment increases to 0.9, 1.0; 0.5 increment increases to 10.0; and 12.0, 14.0, 20.0, 25.0 and 50.0. Disks have been prepared by placing 0.05 ml of the above dilutions of antifungal agent containing medium on 6.5 mm diameter disks in 0.01 or 0.02 ml increments. The impregnated disks are then allowed to dry at a temperature preferably below about 10° C. […] The disks may also be dried by a lyophilization or freeze drying process.
(§2) To perform the tests in accordance with the present inventions, disks impregnated with various concentrations of antifungal agent and nutrient medium and a control disk impregnated only with the corresponding nutrient medium are placed on the fungus to be tested which has been applied to the non-nutrient medium. The disks are the inoculated non-nutrient medium are then incubated at a suitable temperature for a sufficient time to promote growth of the fungus. Any temperature is suitable if it will promote growth of the fungus without adversely affecting the fungus or the activity of the antifungal agent or agents tested. The time of incubation can be determined by observing the extent of growth around the control disk. […] The zones of growth or inhibition around the disks were read at 6, 12, 24, 36 and 48 hours after the disks were placed on the tested fungus.
The minimum inhibitory concentration is defined as the lowest concentration of antifungal agent which inhibits visible growth. […]
Several test disks and a control disk were placed in each petri dish containing the inoculated agar. The disks and petri dishes were then incubated at 29° C. and the minimum inhibitory concentration of the various concentrations of the antifungal agents were read at 6, 12, 24, 36 and 48 hours. […]

[4] = test system: Cryptococcus neoformans; test: MIC by impregnated disk method, Cryptococcus neoformans; type: cell-based; settings: Cryptococcus neoformans
Protocol: as §1, §2
The minimum inhibitory concentration is defined as the lowest concentration of antifungal agent which inhibits visible growth. The disks containing concentrations of antifungal agents below the minimum inhibitory concentration show circumscribed growth of the fungus around the disk. Disks containing concentrations of antifungal agent at or above the minimum inhibitory concentration show no circumscribed growth.
Clinical isolates of various fungi listed in Table 1 were obtained from different patients diagnosed as having fungal infections. The fungal inocula were prepared by using a 24-48 hour cultures grown in yeast nitrogen base containing 1% glucose and 0.15% asparagine. After centrifuging, the supernatant was removed, the sedimented cells were washed twice with sterile distilled water and a cell suspension was adjusted to 80% transmission at 520 nm using a Beckman DB-GT grating spectrophotometer.
Sterile liquified 2% purified agar was placed in petri dishes and allowed to harden. The surface of the agar was inoculated with a sterile cotton swab saturated with a suspension of an organism. The uniformly swabbed plates were then allowed to dry.
Disks were prepared using the dilutions described above for amphotericin B, nystatin and 5-fluorocytosine. 0.05 ml of the dilutions of each antifungal agent diluted with the appropriate nutrient medium were pipetted on 6.5 mm diameter disks. The disks were dried at 4° C. after each application. Control disks were also prepared.
Several test disks and a control disk were placed in each petri dish containing the inoculated agar. The disks and petri dishes were then incubated at 29° C. and the minimum inhibitory concentration of the various concentrations of the antifungal agents were read at 6, 12, 24, 36 and 48 hours.
In 10 duplicate runs with each strain tested, the variation in minimum inhibitory concentration averaged ±0.05 μg/ml.

C[C@@H]1[C@H](O)[C@@H](C)/C=C/C=C/C=C/C=C/C=C/C=C/C=C/[C@H](O[C@@H]2O[C@H](C)[C@@H](O)[C@H](N)[C@@H]2O)C[C@@H]2O[C@](O)(C[C@@H](O)C[C@@H](O)[C@H](O)CC[C@@H](O)C[C@@H](O)CC(=O)O[C@H]1C)C[C@H](O)[C@H]2C(=O)O [Amphotericin B, amphotericin B]
MFC ([1]; isolate 1): 1.5 µg/mL (≈ 1.62 µM) | MFC ([1]; isolate 2): 1.6 µg/mL (≈ 1.73 µM) | MFC ([1]; isolate 3): 0.8 µg/mL (≈ 0.866 µM) | MFC ([1]; isolate 4): 1.1 µg/mL (≈ 1.19 µM) | MFC ([1]; isolate 5): 1.6 µg/mL (≈ 1.73 µM) | MFC ([1]; isolate 6): 6.5 µg/mL (≈ 7.03 µM) | stability in acid ([2]; in the presence of acid): unstable in the presence of acid | thermal stability ([2]; upon incubation): subject to thermal destruction upon incubation | solubility in water ([2]; water): insoluble in water | MIC [3]: 0.8 µg/mL (≈ 0.866 µM) | MIC ([4]; read-out: Minimum Inhibitory Concentration, Disk, C. neoformans isolate 2): 0.2 µg/mL (≈ 0.216 µM) | MIC ([4]; read-out: Minimum Inhibitory Concentration, Disk, C. neoformans isolate 3): 0.5 µg/mL (≈ 0.541 µM) | MIC ([4]; read-out: Minimum Inhibitory Concentration, Disk, Cryptococcus neoformans isolate 1): 0.4 µg/mL (≈ 0.433 µM)
